Values after ≈ are worked out from the molar mass of the structure shown.
Assays:
[1] = test system: vancomycin-susceptible enterococci; test: broth micro-dilution, mean geometric MIC; format: cell-based, Enterococcus faecium and Enterococcus faecalis; conditions: enterococci, 24-hour incubation
[2] = test system: Entercoccus faecium 180-1; test: broth micro-dilution MIC; format: cell-based
Experimental: (§1) The MIC's were determined using a standard broth micro-dilution assay.

[3] = test system: Staphylococcus aureus 491; test: broth micro-dilution MIC; format: cell-based
Experimental: as §1

[4] = test system: Staphylococcus aureus 446; test: broth micro-dilution MIC; format: cell-based
Experimental: as §1

[5] = test system: Streptococcus pyogenes C203; test: broth micro-dilution MIC; format: cell-based
Experimental: as §1

[6] = test system: Staphylococcus aureus 489; test: broth micro-dilution MIC; format: cell-based
Experimental: as §1

[7] = test system: Staphylococcus aureus 447; test: broth micro-dilution MIC; format: cell-based
Experimental: as §1

Entercoccus faecium 276 = test: broth micro-dilution MIC; format: cell-based
Experimental: as §1

[8] = test system: Staphylococcus aureus X778; test: broth micro-dilution MIC; format: cell-based
Experimental: as §1

[9] = test system: Staphylococcus aureus SA1199A; test: broth micro-dilution MIC; format: cell-based
Experimental: as §1

Entercoccus faecium 180 = test: broth micro-dilution MIC; format: cell-based; conditions: Entercoccus faecium 180
Experimental: (§2) The formula I compounds have in vitro and in vivo activity against Gram-positive pathogenic bacteria. The MIC's were determined using a standard broth micro-dilution assay.

[10] = test system: Streptococcus pneumoniae P1; test: broth micro-dilution MIC; format: cell-based
Experimental: as §2

[11] = test system: Staphylococcus haemolyticus 415; test: broth micro-dilution MIC; format: cell-based
Experimental: as §2

[12] = test system: Staphylococcus haemolyticus 105; test: broth micro-dilution MIC; format: cell-based
Experimental: as §2

[13] = test system: Staphylococcus epidermidis 270; test: broth micro-dilution MIC; format: cell-based
Experimental: as §2

[14] = test system: Staphylococcus aureus S13E; format: cell-based
Experimental: as §1

[15] = test system: Staphylococcus aureus SA1199B; format: cell-based
Experimental: as §1

[16] = test system: Staphylococcus aureus X400; test: broth micro-dilution MIC; format: cell-based
Experimental: as §1

Entercoccus faecium 2041 = test: broth micro-dilution MIC; format: cell-based; conditions: Entercoccus faecium 2041
Experimental: as §2

[17] = test system: Enterococcus gallinarum 245; test: broth micro-dilution MIC; format: cell-based; conditions: Enterococcus gallinarum 245
Experimental: as §2

[18] = test system: vancomycin-resistant enterococci; test: broth micro-dilution, mean geometric MIC; format: cell-based, Enterococcus faecium and Enterococcus faecalis; conditions: enterococci, 24-hour incubation

| Compound | mean geometric MIC, Vancomycin Sensitive Strains [1] [µg/mL] | MIC [2] [µg/mL] | MIC [3] [µg/mL] | MIC [4] [µg/mL] | MIC [5] [µg/mL] | MIC [6] [µg/mL] | MIC [7] [µg/mL] | MIC (Entercoccus faecium 276) [µg/mL] | MIC [8] [µg/mL] | MIC [9] [µg/mL] | MIC (Entercoccus faecium 180) [µg/mL] | MIC [10] [µg/mL] | MIC [11] [µg/mL] | MIC [12] [µg/mL] | MIC [13] [µg/mL] | MIC [14] [µg/mL] | MIC [16] [µg/mL] | MIC (Entercoccus faecium 2041) [µg/mL] | MIC [17] [µg/mL] | mean geometric MIC, Vancomycin Resistant Strains [18] [µg/mL] | other results |
| --- | --- | --- | --- | --- | --- | --- | --- | --- | --- | --- | --- | --- | --- | --- | --- | --- | --- | --- | --- | --- | --- |
| CNC(CC(C)C)C(=O)NC1C(=O)NC(CC(N)=O)C(=O)NC2C(=O)NC3C(=O)NC(C(=O)NC(C(=O)O)c4cc(O)cc(O)c4-c4cc3ccc4O)C(OC3CC(C)(N)C(O)C(C)O3)c3ccc(c(Cl)c3)Oc3cc2cc(c3OC2OC(CO)C(O)C(O)C2OC2CC(C)(NCc3ccc(O)c(O)c3)C(O)C(C)O2)Oc2ccc(cc2Cl)C1O (stereo not shown) [Compound 145] | 1.3 | ≤ 0.06 | 0.5 (≈ 0.292 µM) | 0.5 (≈ 0.292 µM) | ≤ 0.06 | ≤ 0.06 | 1 (≈ 0.583 µM) | 0.125 (≈ 0.0729 µM) | 0.125 (≈ 0.0729 µM) | ≤ 0.06 | 4 (≈ 2.33 µM) | ≤ 0.06 | 8 (≈ 4.67 µM) | 2 (≈ 1.17 µM) | 1 (≈ 0.583 µM) | 0.125 (≈ 0.0729 µM) |  |  |  |  | MIC [15]: ≤ 0.06 µg/mL |
| CNC(CC(C)C)C(=O)NC1C(=O)NC(CC(N)=O)C(=O)NC2C(=O)NC3C(=O)NC(C(=O)NC(C(=O)O)c4cc(O)cc(O)c4-c4cc3ccc4O)C(OC3CC(C)(N)C(O)C(C)O3)c3ccc(c(Cl)c3)Oc3cc2cc(c3OC2OC(CO)C(O)C(O)C2OC2CC(C)(NCc3cncc(-c4ccccc4)c3)C(O)C(C)O2)Oc2ccc(cc2Cl)C1O (stereo not shown) [Compound 101] |  | ≤ 0.06 | 0.5 (≈ 0.284 µM) | 0.5 (≈ 0.284 µM) | ≤ 0.06 | ≤ 0.06 | 1 (≈ 0.568 µM) | 0.125 (≈ 0.071 µM) |  | 0.5 (≈ 0.284 µM) |  | ≤ 0.06 | 8 (≈ 4.55 µM) | 1 (≈ 0.568 µM) | 0.5 (≈ 0.284 µM) |  | ≤ 0.06 | ≤ 0.06 | 8 (≈ 4.55 µM) | 4.0 | MIC [15]: 1 µg/mL (≈ 0.568 µM) |
| CNC(CC(C)C)C(=O)NC1C(=O)NC(CC(N)=O)C(=O)NC2C(=O)NC3C(=O)NC(C(=O)NC(C(=O)O)c4cc(O)cc(O)c4-c4cc3ccc4O)C(OC3CC(C)(N)C(O)C(C)O3)c3ccc(c(Cl)c3)Oc3cc2cc(c3OC2OC(CO)C(O)C(O)C2OC2CC(C)(NCc3cnc4ccccc4c3)C(O)C(C)O2)Oc2ccc(cc2Cl)C1O (stereo not shown) [Compound 28] | 0.71 | ≤ 0.06 | 0.25 (≈ 0.144 µM) | 0.25 (≈ 0.144 µM) |  | ≤ 0.06 | 1 (≈ 0.577 µM) | ≤ 0.06 | ≤ 0.06 | ≤ 0.06 | 1 (≈ 0.577 µM) |  | 8 (≈ 4.61 µM) | 4 (≈ 2.31 µM) | 1 (≈ 0.577 µM) | ≤ 0.06 | ≤ 0.06 | 0.25 (≈ 0.144 µM) | 0.25 (≈ 0.144 µM) | 4.7 |  |
| CC#CCCCCCCCCCCOc1ccc(CNC2(C)CC(OC3C(Oc4c5cc6cc4Oc4ccc(cc4Cl)C(OC4CC(C)(N)C(O)C(C)O4)C4NC(=O)C(NC(=O)C6NC(=O)C(CC(N)=O)NC(=O)C(NC(=O)C(CC(C)C)NC)C(O)c6ccc(c(Cl)c6)O5)c5ccc(O)c(c5)-c5c(O)cc(O)cc5C(C(=O)O)NC4=O)OC(CO)C(O)C3O)OC(C)C2O)cc1 (stereo not shown) [Compound 233] | 1.7 | 2 (≈ 1.07 µM) | 8 (≈ 4.26 µM) | 4 (≈ 2.13 µM) |  | 4 (≈ 2.13 µM) |  | 8 (≈ 4.26 µM) | 8 (≈ 4.26 µM) | 4 (≈ 2.13 µM) | 2 (≈ 1.07 µM) | 0.5 (≈ 0.266 µM) |  |  | 8 (≈ 4.26 µM) | 8 (≈ 4.26 µM) | 8 (≈ 4.26 µM) | 2 (≈ 1.07 µM) |  | 1.7 |  |
| CNC(CC(C)C)C(=O)NC1C(=O)NC(CC(N)=O)C(=O)NC2C(=O)NC3C(=O)NC(C(=O)NC(C(=O)O)c4cc(O)cc(O)c4-c4cc3ccc4O)C(OC3CC(C)(N)C(O)C(C)O3)c3ccc(c(Cl)c3)Oc3cc2cc(c3OC2OC(CO)C(O)C(O)C2OC2CC(C)(NCc3ccc(N4CCC(C)CC4)cc3)C(O)C(C)O2)Oc2ccc(cc2Cl)C1O (stereo not shown) [Compound 129] | 1.52 | ≤ 0.06 | 0.5 (≈ 0.281 µM) | 2 (≈ 1.12 µM) | ≤ 0.06 | ≤ 0.06 | 1 (≈ 0.562 µM) | 0.125 (≈ 0.0702 µM) |  | ≤ 0.06 | 4 (≈ 2.25 µM) | ≤ 0.06 | 4 (≈ 2.25 µM) | 4 (≈ 2.25 µM) | 1 (≈ 0.562 µM) |  |  | ≤ 0.06 | 0.125 (≈ 0.0702 µM) | 27 |  |
| CNC(CC(C)C)C(=O)NC1C(=O)NC(CC(N)=O)C(=O)NC2C(=O)NC3C(=O)NC(C(=O)NC(C(=O)O)c4cc(O)cc(O)c4-c4cc3ccc4O)C(OC3CC(C)(N)C(O)C(C)O3)c3ccc(c(Cl)c3)Oc3cc2cc(c3OC2OC(CO)C(O)C(O)C2OC2CC(C)(NCc3cccc(OC(=O)C4CCCCC4)c3)C(O)C(C)O2)Oc2ccc(cc2Cl)C1O (stereo not shown) [Compound 165] | 0.062 | ≤ 0.06 | 0.5 (≈ 0.276 µM) | 1 (≈ 0.553 µM) | ≤ 0.06 | 2 (≈ 1.11 µM) | 0.5 (≈ 0.276 µM) | 0.5 (≈ 0.276 µM) |  | ≤ 0.06 | 0.5 (≈ 0.276 µM) | ≤ 0.06 | 4 (≈ 2.21 µM) | 4 (≈ 2.21 µM) | 1 (≈ 0.553 µM) | ≤ 0.06 | 0.5 (≈ 0.276 µM) | ≤ 0.06 | 4 (≈ 2.21 µM) | 4.0 | MIC [15]: 1 µg/mL (≈ 0.553 µM) |
| CNC(CC(C)C)C(=O)NC1C(=O)NC(CC(N)=O)C(=O)NC2C(=O)NC3C(=O)NC(C(=O)NC(C(=O)O)c4cc(O)cc(O)c4-c4cc3ccc4O)C(O)c3ccc(c(Cl)c3)Oc3cc2cc(c3OC2OC(CO)C(O)C(O)C2OC2CC(C)(NCc3cccc4ccccc34)C(O)C(C)O2)Oc2ccc(cc2Cl)C1O (stereo not shown) [Compound 180] | 0.71 |  | 0.5 (≈ 0.315 µM) |  | ≤ 0.06 | ≤ 0.06 |  | 2 (≈ 1.26 µM) | ≤ 0.06 | ≤ 0.06 | 8 (≈ 5.03 µM) | ≤ 0.06 | 2 (≈ 1.26 µM) | 2 (≈ 1.26 µM) |  | ≤ 0.06 | ≤ 0.06 | 0.25 (≈ 0.157 µM) | 0.25 (≈ 0.157 µM) | > 128 | MIC [15]: ≤ 0.06 µg/mL |
